Some results are limits rather than exact numbers.

These results are taken from patent US10881060B2, “Endophytes and related methods” (Agriculture Victoria Services PTY LTD, priority 2010, dated 2021).

The subject of this experiment is N. lolii (strain ST) mycelia. Description: Colchicine kill curve of endophyte mycelia. It is filed as cell-based. The settings on record: grown 21 days. How it is done:
Experiments were conducted to determine the range of colchicine concentrations in which the mycelia of the fungal endophyte N. lolii (strain ST) would grow successfully. Mycelia were grown in colchicine concentrations ranging from 0% to 1% for 21 days and monitored for growth (FIG. 15). At greater than or equal to 0.2% colchicine mycelium growth halted whereas at 0.1% or less colchicine mycelium growth was prolific.

As for `COc1cc2c(c(OC)c1OC)-c1ccc(OC)c(=O)cc1[C@@H](NC(C)=O)CC2` [colchicine], the “Colchicine concentration at which mycelium growth halted” value is listed as “greater than or equal to 0.2%” and the “Colchicine concentration at which mycelium growth was prolific” value is recorded as at most 0.1%.
